# Measured values reported in patent publication US7417045B2, “Heterocyclic substituted pyridine or phenyl compounds with CXCR3 antagonist activity” (Schering Corporation, priority 2005, dated 2008).
# Target: T1, human CXCR3 (N-delta 4) (Homo sapiens, UniProt P49682)
# T1 construct: CD8 leader (N); Flag tag; expressed in transfected cells; membranes
# T1 sequence (P49682 5-368 limits assumed): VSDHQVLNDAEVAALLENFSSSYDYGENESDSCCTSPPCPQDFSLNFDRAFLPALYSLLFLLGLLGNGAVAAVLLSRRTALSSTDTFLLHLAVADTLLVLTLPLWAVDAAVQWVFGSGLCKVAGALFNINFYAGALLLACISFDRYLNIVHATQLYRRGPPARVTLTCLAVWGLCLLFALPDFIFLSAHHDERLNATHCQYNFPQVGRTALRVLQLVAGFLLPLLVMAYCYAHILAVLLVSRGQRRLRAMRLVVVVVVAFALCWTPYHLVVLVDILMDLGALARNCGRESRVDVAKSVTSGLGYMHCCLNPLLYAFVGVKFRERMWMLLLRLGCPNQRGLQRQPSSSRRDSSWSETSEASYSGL
# Assay: Human CXCR3 (N-delta 4) Scintillation Proximity Assay (SPA), [125I] IP-10 binding
# Conditions: IC50 rating; [125I] IP-10 displacement, Ba/F3-hCXCR3 (N-delta 4) membranes
# Source text: The inventive compounds can readily be evaluated to determine activity at The CXCR3 receptors by known methods, such as, for example, Development of Human CXCR3 (N-delta 4) Binding Assay.
# Cloning and Expression of Human CXCR3 (N-Delta 4):
# The DNA encoding human CXCR3 was cloned by PCR using human genomic DNA (Promega, Madison, Wis.) as a template. The PCR primers were designed based on the published sequence of human orphan receptor GPR9 (1) with incorporated restriction sites, a Kozak consensus sequence, CD8 leader and Flag tag. The PCR product was subcloned into the mammalian expression vector pME18Sneo, a derivative of the SR-alpha expression vector (designated as pME18Sneo-hCXCR3 (N-delta 4).
# IL-3-dependent mouse pro-B cells Ba/F3 were transfected by electroporation in 0.4 ml Dulbecco's PBS containing 4×10^6 cells with 20 μg of pME18Sneo-hCXCR3 (N-delta 4) plasmid DNA. Cells were pulsed at 400 Volts, 100 OHMs, 960 μFd. The transfected cells were under selection with 1 mg/ml G418 (Life Technologies, Gaithersburg, Md.). G418-resistant Ba/F3 clones were screened for CXCR3 expression by specific binding of [^125I] IP-10 (NEN Life Science Products, Boston, Mass.).
# Preparation of Ba/F3-hCXCR3 (N-Delta 4) Membranes
# Ba/F3 cells expressing human CXCR3 (N-delta 4) were pelleted and resuspended in the lysis buffer containing 10 mM HEPES, pH 7.5 and Complete® protease inhibitors (1 tablet per 100 ml) (Boehringer Mannheim, Indianapolis, Ind.) at a cell density of 20×10^6 cells per ml. After 5 minutes incubation on ice, cells were transferred to 4639 cell disruption bomb (Parr Instrument, Moline, Ill.) and applied with 1,500 psi of nitrogen for 30 minutes on ice. Large cellular debris was removed by centrifugation at 1,000× g. Cell membrane in the supernatant was sedimented at 100,000× g. The membrane was resuspended in the lysis buffer supplemented with 10% sucrose and stored at −80° C. Total protein concentration of the membrane was determined by BCA method from Pierce (Rockford, Ill.).
# Human CXCR3 (N-Delta 4) Scintillation Proximity Assay (SPA)
# For each assay point, 2 μg of membrane was preincubated for 1 hr with 300 μg wheat germ agglutinin (WGA) coated SPA beads (Amersham, Arlington Heights, Ill.) in the binding buffer (50 mM HEPES, 1 mM CaCl2, 5 mM MgCl2, 125 mM NaCl, 0.002% NaN3, 1.0% BSA) at room temperature. The beads were spun down, washed once, resuspended in the binding buffer and transferred to a 96-well Isoplate (Wallac, Gaithersburg, Md.). 25 pM of [^125I] IP-10 with tested compounds in a series of titration were added to start the reaction. After 3 hr reaction at room temperature, the amount of [^125I] IP-10 bound to the SPA beads was determined with a Wallac 1450 Microbeta counter.
row,Compound,IC50
1,CC[C@H]1CN(c2ncc(-c3ncc[nH]3)cc2Cl)CCN1C1CCN(Cc2ccc(C(=O)OC)cc2)CC1 [Compound 16],< 25 nM
2,CC[C@H]1CN(c2ncc(-c3ncc[nH]3)cc2Cl)CCN1C1CCN(Cc2ccc(Cl)cc2C#N)CC1 [Compound 33],< 25 nM
3,CC[C@H]1CN(c2ncc(-c3ncc[nH]3)cc2Cl)CCN1C1CCN([C@@H](C(N)=O)c2ccc(Cl)cc2)CC1 [Compound 91],< 25 nM
4,CC[C@H]1CN(c2ncc(C3=NCCN3)cc2Cl)CCN1C1CCN(Cc2ccc(Cl)cc2C(=O)OC)CC1 [Compound 61],< 25 nM
5,CC[C@H]1CN(c2ncc(C3=NCCN3)cc2Cl)CCN1C1CCN(C(=O)c2ccc(Cl)cc2C#N)CC1 [Compound 82],< 25 nM
6,CC[C@H]1CN(c2ncc(-c3ncc[nH]3)cc2Cl)CCN1C1CCN(CCC(=O)c2ccc(Cl)cc2)CC1 [Compound 95],< 25 nM
7,CCOC(=O)C1CC1c1ccc(CN2CCC(N3CCN(c4ncc(C5=NCCN5)cc4Cl)C[C@@H]3CC)CC2)cc1 (stereo partly drawn) [Compound 75],< 25 nM
8,CC[C@H]1CN(c2ncc(-c3ncc[nH]3)cc2Cl)CCN1C1CCN(C(=O)c2ccc(-n3cccc3)cc2)CC1 [Compound 67],< 25 nM
9,CC[C@H]1CN(c2ncc(C3=NCCN3)cc2Cl)CCN1C1CCN(Cc2ccc(Cl)cc2C(=O)NCCO)CC1 [Compound 94],< 25 nM
10,CC[C@H]1CN(c2ncc(-c3ncc[nH]3)cc2Cl)CCN1C1CCN(Cc2ccc(C#N)cc2)CC1 [Compound 17],< 25 nM
11,CC[C@H]1CN(c2ncc(-c3ncc[nH]3)cc2Cl)CCN1C1CCN([C@@H](C)c2ccc(Cl)cc2)CC1 [Compound 30],< 25 nM
12,CC[C@H]1CN(c2ncc(C3=NCCN3)cc2Cl)CCN1C1CCN(Cc2ccc(OC(F)(F)F)cc2)CC1 [Compound 12],< 25 nM
13,CCNc1nnc(-c2cnc(N3CCN(C4CCN(C(=O)c5ccc(Cl)nc5N)CC4)[C@@H](CC)C3)c(Cl)c2)o1 [Compound 73],< 25 nM
14,CC[C@H]1CN(c2ncc(C3=NCCN3)cc2Cl)CCN1C1CCN(C(=O)c2ccc(Cl)cc2)CC1 [Compound 58],< 25 nM

# Other lines, results leading:
row,IC50,Compound
1,> 100 nM,CCOC1(C)NN=C(c2cnc(N3CCN(C4CCN(C(=O)c5ccc(Br)cc5)CC4)[C@@H](CC)C3)c(Cl)c2)O1 (stereo partly drawn) [Compound 158]
2,25 to 100 nM,CC[C@H]1CN(c2ncc(-c3nc(C(O)C(F)(F)F)c[nH]3)cc2Cl)CCN1C1CCN(C(=O)c2ccc(Cl)cc2)CC1 (stereo partly drawn) [Compound 125]
3,> 100 nM,CC[C@H]1CN(c2ncc(-c3ncc[nH]3)cc2Cl)CCN1C1CCN(C(C)c2ccc(N3CCOCC3)cc2)CC1 (stereo partly drawn) [Compound 139]
4,> 100 nM,CC[C@H]1CN(c2ncc(-c3cnc(N)s3)cc2Cl)CCN1C1CCN(C(=O)c2ccc(Cl)cc2)CC1 [Compound 167]
5,> 100 nM,CC[C@H]1CN(c2ncc(-c3ncc[nH]3)cc2Cl)CCN1C1CCN(C(=O)c2ccc(C#CC(C)(C)NS(N)(=O)=O)cc2)CC1 [Compound 168]
6,> 100 nM,CC[C@H]1CN(c2ncc(-c3noc(=O)[nH]3)cc2Cl)CCN1C1CCN(Cc2ccc(Cl)cc2F)CC1 [Compound 160]
7,> 100 nM,CC[C@H]1CN(c2ncc(-c3ncc[nH]3)cc2Cl)CCN1C1CCN(Cc2ccc(C(N)=O)cc2)CC1 [Compound 148]
8,> 100 nM,CC[C@H]1CN(c2ncc(-c3ncc[nH]3)cc2Cl)CCN1C1(C)CCN(Cc2ccc(Cl)cc2C(=O)OC)CC1 [Compound 151]
9,25 to 100 nM,CC[C@H]1CN(c2ncc(-c3ncc[nH]3)cc2Cl)CCN1C1CCN(C(C(=O)Nc2ccccn2)c2ccc(Cl)cc2)CC1 (stereo partly drawn) [Compound 116]
10,25 to 100 nM,CC[C@H]1CN(c2ncc(C3=NC(C)(C)CN3)cc2Cl)CCN1C1CCN(C(=O)c2ccc(Cl)cc2)CC1 [Compound 105]
11,> 100 nM,CC[C@H]1CN(c2ncc(-c3ncc[nH]3)cc2Cl)CCN1C1CCN([C@H](C(=O)NCC2CC2)c2ccc(Cl)cc2)CC1 [Compound 159]
12,25 to 100 nM,CC[C@H]1CN(c2ncc(-c3nccn3S(C)(=O)=O)cc2Cl)CCN1C1CCN(Cc2ccc(Cl)cc2F)CC1 [Compound 121]
13,25 to 100 nM,CC[C@H]1CN(c2ncc(-c3ncc[nH]3)cc2Cl)CCN1C1CCN(C(=O)c2ccc(-c3cnco3)cc2)CC1 [Compound 117]
